Laboratory results: PubChem BioAssay AID330 (DTP/NCI, 2004)
Values joined by “and” are separate entries in the source; they are usually repeats but may differ in a detail not shown here. Equal values may be shown once. Toxic doses and inconclusive results are not listed. Rule for the calls: active = survival T/C of 150% or more; inactive = T/C below 125% in these data.

System: P388 leukemia ip, CD2F1 mice, survival T/C
Assay: NCI In Vivo Anticancer Drug Screen. Data for tumor model P388 Leukemia (intraperitoneal) in CD2F1 (CDF1) mice
Settings: endpoint: median survival time, higher = longer survival
Procedure, shortened: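 Mice carrying the transplanted tumor received test compound or vehicle. Survival was recorded in each group, and the value is the treated-group measurement divided by that of the vehicle-treated control group.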

[1] = dose: 100.0 mg/kg/injection, schedule: Q04DX003 (ip), vehicle: Klucel (hydroxypropylcellulose) (HPC)
[2] = dose: 400.0 mg/kg/injection, schedule: Q04DX003 (ip), vehicle: Klucel (hydroxypropylcellulose) (HPC)
[3] = dose: 50.0 mg/kg/injection, schedule: Q01DX009 (ip), vehicle: saline with Tween-80
[4] = dose: 100.0 mg/kg/injection, schedule: Q01DX009 (ip), vehicle: saline with Tween-80
[5] = dose: 100.0 mg/kg/injection, schedule: Q01DX009 (ip), vehicle: saline
[6] = dose: 50.0 mg/kg/injection, schedule: Q01DX005 (ip), vehicle: Klucel (hydroxypropylcellulose) (HPC)
[7] = dose: 100.0 mg/kg/injection, schedule: Q01DX005 (ip), vehicle: Klucel (hydroxypropylcellulose) (HPC)
[8] = dose: 200.0 mg/kg/injection, schedule: Q01DX005 (ip), vehicle: Klucel (hydroxypropylcellulose) (HPC)
[9] = dose: 12.5 mg/kg/injection, schedule: Q01DX009 (ip), vehicle: Klucel (hydroxypropylcellulose) (HPC)
[10] = dose: 50.0 mg/kg/injection, schedule: Q01DX009 (ip), vehicle: saline
[11] = dose: 50.0 mg/kg/injection, schedule: Q01DX005 (ip), vehicle: saline with Tween-80
[12] = dose: 100.0 mg/kg/injection, schedule: Q01DX005 (ip), vehicle: saline with Tween-80
[13] = dose: 200.0 mg/kg/injection, schedule: Q01DX005 (ip), vehicle: saline with Tween-80
[14] = dose: 200.0 mg/kg/injection, schedule: Q01DX009 (ip), vehicle: saline with Tween-80
[15] = dose: 400.0 mg/kg/injection, schedule: Q01DX009 (ip), vehicle: saline with Tween-80
[16] = dose: 25.0 mg/kg/injection, schedule: Q01DX009 (ip), vehicle: Klucel (hydroxypropylcellulose) (HPC)
[17] = dose: 50.0 mg/kg/injection, schedule: Q01DX009 (ip), vehicle: Klucel (hydroxypropylcellulose) (HPC)
[18] = dose: 100.0 mg/kg/injection, schedule: Q01DX009 (ip), vehicle: Klucel (hydroxypropylcellulose) (HPC)
[19] = dose: 200.0 mg/kg/injection, schedule: Q01DX009 (ip), vehicle: Klucel (hydroxypropylcellulose) (HPC)

Measured: T/C

COC(=O)C1C2C=CC(C1C(=O)OC)N(/C=C/c1ccccc1)C2=O (stereo not drawn)
inactive: [1] 96 % of control | dose: 200.0 mg/kg/injection, schedule: Q04DX003 (ip), vehicle: Klucel (hydroxypropylcellulose) (HPC) 95 % of control | [2] 97 % of control

CCCCCCC1(/C=C/c2ccc(Cl)c(Cl)c2)SCCS1
inactive: dose: 12.0 mg/kg/injection, schedule: Q01DX009 (ip), vehicle: saline with Tween-80 100 % of control | dose: 12.5 mg/kg/injection, schedule: Q01DX009 (ip), vehicle: saline 105 % of control | dose: 25.0 mg/kg/injection, schedule: Q01DX009 (ip), vehicle: saline with Tween-80 107 % of control | dose: 25.0 mg/kg/injection, schedule: Q01DX009 (ip), vehicle: saline 102 % of control | [3] 104 % of control | [4] 100 % of control | [5] 102 % of control and 90 % of control

CNCC(=O)Nc1ccc2c(c1)C(=O)c1ccc(NC(=O)CNC)cc1C2=O
inactive: dose: 94.75 mg/kg/injection, schedule: Q01DX001 (ip), vehicle: suspension in saline 110 % of control

Nc1nc(N)c(-c2ccc(Cl)c(Cl)c2)c(COc2cccc(CNC(=O)c3cccc(S(=O)(=O)F)c3)c2)n1
inactive: [1] 110 % of control | [2] 120 % of control

CC(C)(C)OC(=O)N/C=C/c1ccccc1
inactive: dose: 100.0 mg/kg/injection, schedule: Q04DX002 (ip), vehicle: suspension in saline 101 % of control | dose: 200.0 mg/kg/injection, schedule: Q04DX002 (ip), vehicle: suspension in saline 92 % of control | dose: 400.0 mg/kg/injection, schedule: Q04DX002 (ip), vehicle: suspension in saline 94 % of control

CC(=O)OCC1OC(Oc2cccc(C=C(C(C)=O)C(C)=O)c2)C(OC(C)=O)C(OC(C)=O)C1OC(C)=O (stereo not drawn)
inactive: [6] 100 % of control | [7] 98 % of control | [8] 105 % of control

N#CC(C#N)=NNc1ccc([N+](=O)[O-])cc1Cl
inactive: dose: 6.25 mg/kg/injection, schedule: Q01DX009 (ip), vehicle: Klucel (hydroxypropylcellulose) (HPC) 103 % of control | [9] 103 % of control

Cc1c(O)c2c(c(O)c1Cc1cccc(CN)c1)C(=O)c1ccccc1C2=O
inactive: dose: 1.56 mg/kg/injection, schedule: Q01DX009 (ip), vehicle: water 91 % of control | dose: 25.0 mg/kg/injection, schedule: Q01DX009 (ip), vehicle: water 89 % of control

Clc1nnc(-c2ccccc2)s1
inactive: dose: 25.0 mg/kg/injection, schedule: Q04DX003 (ip), vehicle: Klucel (hydroxypropylcellulose) (HPC) 100 % of control | dose: 50.0 mg/kg/injection, schedule: Q04DX003 (ip), vehicle: Klucel (hydroxypropylcellulose) (HPC) 102 % of control | [1] 100 % of control

CCCC(N)P(=O)(O)O (stereo not drawn)
inactive: [10] 99 % of control | [5] 93 % of control | dose: 200.0 mg/kg/injection, schedule: Q01DX009 (ip), vehicle: saline 96 % of control | dose: 400.0 mg/kg/injection, schedule: Q01DX009 (ip), vehicle: saline 93 % of control

COc1cc2c(cc1O)C(=O)CCC(C(=O)O)=C2
inactive: [4] 92 % of control

CCOC(=O)NCP(Cl)(CNC(=O)OCC)(CNC(=O)OCC)CNC(=O)OCC
inactive: [10] 99 % of control | [5] 86 % of control

CCN(CC)CCN(C(=O)OCCOC(=O)N(CCN(CC)CC)c1cccc2sc3ccccc3c(=O)c12)c1cccc2sc3ccccc3c(=O)c12
inactive: [11] 99 % of control | [12] 106 % of control | [13] 105 % of control

[N-]=[N+]=NC12CC3CC(CC(C3)C1)C2
inactive: [11] 100 % of control | [12] 101 % of control | [13] 106 % of control

O=C(NC(CSSCC(NC(=O)c1ccccc1)C(=O)O)C(=O)O)c1ccccc1 (stereo not drawn)
inactive: [3] 109 % of control | [4] 90 % of control | [14] 101 % of control | [15] 93 % of control

COc1cc(C)c2nc3c(C)c(Cl)ccc3c(Cl)c2c1
inactive: dose: 3.0 mg/kg/injection, schedule: Q01DX005 (ip), vehicle: Klucel + Tween-80 98 % of control | dose: 6.0 mg/kg/injection, schedule: Q01DX005 (ip), vehicle: Klucel + Tween-80 100 % of control | dose: 12.0 mg/kg/injection, schedule: Q01DX005 (ip), vehicle: Klucel + Tween-80 97 % of control | dose: 50.0 mg/kg/injection, schedule: Q01DX005 (ip), vehicle: Klucel + Tween-80 88 % of control

c1ccc(C(SN=C2CCCCC2)(c2ccccc2)c2ccccc2)cc1
inactive: [11] 100 % of control | [12] 91 % of control | [13] 90 % of control

Fc1ccc(CSc2ncnc3nc[nH]c23)cc1
inactive: [4] 90 % of control | [14] 100 % of control | [15] 100 % of control

COC1/C=C\OC2(C)Oc3c(C)c(O)c4c(O)c(c5[nH]cnc5c4c3C2=O)NC(=O)/C(C)=C\C=C\C(C)C(O)C(C)C(O)C(C)C(OC(C)=O)C1C (stereo not drawn)
inactive: [16] 102 % of control | [17] 102 % of control | [18] 100 % of control | [19] 108 % of control

c1ccc(-c2c(-c3ccccc3)[c+]2-c2ccccc2)cc1
inactive: dose: 100.0 mg/kg/injection, schedule: Q01DX001 (ip), vehicle: gum acacia 99 % of control | dose: 200.0 mg/kg/injection, schedule: Q01DX001 (ip), vehicle: gum acacia 99 % of control

COC(=O)c1ccc(=O)c2nc3/c(=C/O)c(O)c(C)c(=O)c3[nH]c12
inactive: dose: 6.25 mg/kg/injection, schedule: Q01DX005 (ip), vehicle: other 117 % of control | dose: 12.5 mg/kg/injection, schedule: Q01DX005 (ip), vehicle: other 122 % of control

CCOC(=O)c1cnc2ncccn12
inactive: [17] 99 % of control | [18] 101 % of control | [19] 91 % of control

O=C(NCC(CC(NC(=O)c1ccccc1)C(=O)O)NC(=O)c1ccccc1)c1ccccc1 (stereo not drawn)
inactive: [9] 89 % of control | [16] 91 % of control | [17] 93 % of control | [18] 89 % of control | [19] 90 % of control

Cc1ccc(S(=O)(=O)NC(CCCNC(=O)OCc2ccccc2)C(=O)O)cc1 (stereo not drawn)
inactive: [6] 100 % of control | [7] 99 % of control | [8] 96 % of control

COC(=O)c1nnc2n1-c1ccc(Cl)cc1C(c1ccccc1)=[N+]([O-])C2
inactive: dose: 50.0 mg/kg/injection, schedule: Q04DX002 (ip), vehicle: saline with Tween-80 96 % of control | dose: 100.0 mg/kg/injection, schedule: Q04DX002 (ip), vehicle: saline with Tween-80 104 % of control | dose: 200.0 mg/kg/injection, schedule: Q04DX002 (ip), vehicle: saline with Tween-80 99 % of control

O=c1c2ccccc2c(=O)c2c1cc(Cl)c1[nH]c3c([nH]c12)c(Cl)cc1c(=O)c2ccccc2c(=O)c13
inactive: [6] 97 % of control | [7] 96 % of control | [8] 94 % of control
